Literature values in US7135615B2, “Chromosome doubling method” (The Curators of the University of Missouri, priority 2001, dated 2006).

Test system: parthenogenetically induced haploid maize (Zea mays L.) seedlings
Conditions: cited from earlier work

## COc1cc2c(c(OC)c1OC)-c1ccc(OC)c(=O)cc1[C@@H](NC(C)=O)CC2 [colchicine]
Colchicine treatments of haploid maize seedlings, reported
  haploid recovery rates: 26–41%
Colchicine treatments, affected by growing conditions
  recovery rates could drop as low as: 0.8–3.1%
Previously used colchicine treatments
  estimated selfing rate: 5–15%
